Where no end group is shown, it is not given here.
Biological target: T1, RNase A (Bos taurus, UniProt P61823)
T1 sequence (P61823 27-150): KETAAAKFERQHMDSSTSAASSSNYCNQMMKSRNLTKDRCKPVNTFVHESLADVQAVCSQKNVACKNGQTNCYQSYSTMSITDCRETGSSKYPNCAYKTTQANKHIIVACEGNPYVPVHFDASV
Assay: RNA cleavage assay with total RNA from HeLa cells, agarose gel imaging
Assay type: biochemical, bovine
Design: Ribonuclease A (Type II-A) from bovine pancreas; purchased Sigma-Aldrich Korea; host or cells: bovine pancreas
Conditions: RNase 0.7 μg/ml, agarose gel image analysis, read-out: IC50 for RNase A activity inhibition
Protocol: The analysis of RNase inhibitory activity of Fv antibodies and synthetic peptides was performed using RNA samples extracted from HeLa cells as follows: (1) Mixing the RNA sample extracted from HeLa cells (600 ng) with 87.5 nM-5.6 μM under conditions of 37° C. for 30 minutes, (2) Electrophoresis on a 1% agarose gel at 90 V for 40 minutes. The estimation of RNase inhibitory activity was carried out by gel imaging of the cleaved RNA using a ChemiDoc XPS (Bio-Rad, CA, USA).
(§1) Using RNA samples extracted from HeLa cells, the RNase inhibitory activity of the synthesized peptides was estimated. The RNase inhibitory activity was assessed using agarose gel imaging of the cleaved RNA. To optimize the RNase concentration for the RNase inhibition assay, total RNA was treated with RNase A (600 ng), with RNase A concentrations ranging from 5.7 ng/ml to 3.6 μg/ml, and the cleaved RNA bands were observed after treatment with ETBR (ethidium bromide). […] The RNase concentration for inhibition analysis was determined to be 0.7 μg/ml, with RNase concentrations above 3.6 μg/ml. The inhibition analysis was performed by mixing total RNA from HeLa cells with RNase (0.7 μg/ml) and Fv-antibody at a concentration of 10 μM, resulting in the observation that the entire RNA was completely cleaved into small RNA bands in the absence of the Fv-antibody. […] The optimal concentration of the Fv-antibody for RNase inhibition was determined by the cleavage reaction with total RNA in the concentration range of 87.5 nM to 5.6 μM for Fv-antibodies (Fv-1, Fv-2, Fv-3).
The analysis of RNase inhibitory activity of Fv antibodies and synthetic peptides was performed using RNA samples extracted from HeLa cells as follows: (1) A mixture of RNA samples extracted from HeLa cells (600 ng) was prepared at concentrations of 87.5 nM-5.6 μM and incubated at 37° C. for 30 minutes; (2) Electrophoresis was conducted in a 1% agarose gel under 90 V for 40 minutes. The estimation of RNase inhibitory activity was carried out by gel imaging of the cleaved RNA using a ChemiDoc XPS (Bio-Rad, CA, USA).
as §1, with “the” for “the concentration”

Sequence | IC50 [nM]
DGTAKKSRKDD [Peptide-3] | 464
YGPVGRVKRDD [Peptide-2] | 658
CGPDSDVMTDF [Peptide-1] | 995

Reference: US20260217863A1, “ANTIBODY OR PEPTIDE BINDING SPECIFICALLY TO RNASE A, IMMUNOASSAY DEVICE AND METHOD FOR DETECTING RNASE A, AND METHOD FOR COLLECTING RNASE A” (UIF (University Industry Foundation), Yonsei University, priority 2022, published 2026)
